# Read-outs that look alike come from different tables or passages of the source.
# System: H.Ep-2 cell line
# Assay: Cytotoxicity in vitro, cell survival by trypan blue exclusion
# Type: cell-based
# Conditions: Homo sapiens, read-out: IC50 (dose required to give 50% cell survival)
# Experimental: Cytotoxicity in vitro. The human epidermoid carcinoma cell line H.Ep-2 was originally obtained from a metastatic nodule in the neck of a patient with a primary tumour of the larynx. it was established in tissue culture after two generations in X-irradiated, cortisone-treated rats. Immunocytochemistry has shown the cells to bind the H17E2 antibody, but not HMFGl, which was used as a negative control in these studies. Cells were cultured in RPMI 1640 tissue culture medium supplemented with 10% foetal calf serum (Gibco Ltd, Paisley, Scotland). For cell survival experiments, after harvesting with 0.02% EDTA, 5×10^5 cells were plated in quadruplicate into 25-cm^2 Falcon flasks (Becton Dickinson, N.J., USA). Twenty-four hours later the cytotoxic agent was added (either amygdalin alone, β-glucosidase alone, amygdalin plus β-glucosidase, potassium cyanide alone, amygdalin plus H17E2β-glucosidase conjugate or amygdalin plus HMFGl-β-glucosidase conjugate). After 24 h exposure, the medium containing the drug was replaced with fresh medium and the cells allowed to grow for a further 24 h before counting by haemacytometry, using trypan blue exclusion as the criterion for cell integrity.
smiles,measurement,setting,value
"N#C[C@H](O[C@@H]1O[C@H](CO[C@@H]2O[C@H](CO)[C@@H](O)[C@H](O)[C@H]2O)[C@@H](O)[C@H](O)[C@H]1O)c1ccccc1 [amygdalin, D-mandelonitrile-β-D-glucosido-6-β-D-glycoside]",IC50,"HEp-2, in the presence of 0.35 μM β-glucosidase",600 ± 300 µM
same,IC50,"HEp-2, in the presence of 3.5 μM β-glucosidase",500 ± 200 µM

# Source: patent US20020114813A1, “Compounds” (priority 1990, published 2002)
